The structures appear in SMILES notation.

What is called melting point is the temperature of the solid-liquid transition. The compound `Oc1cccc2c1CCCC2O` (stereo unspecified) had a melting point of 132 to 134 °C.
The result for `Cc1oc(C(=O)NN)nc1-c1ccccc1` reads 124 to 126 °C; that for `Cc1ccc2ccc(Cl)cc2n1`, 74 to 78 °C; that for `O=C(Nc1ccccc1CCCCc1ccccc1NC(=O)c1ccccc1)c1ccccc1`, 210 to 211 °C.
On to `Cc1ccc(C)n1-c1ccccc1C(=O)O`, for which the melting point is 125 °C.
Consider `O=c1c(Cl)c(Cl)cnn1Cc1c(F)cccc1Cl`, for which the melting point fell in the range of 137 to 138 °C.
`CCN(CC)CCOCc1cc(Br)cc(Br)c1OC`: the melting point is < 25 °C.
As to `O=[N+]([O-])c1cccc2cccc(Cl)c12`, the melting point was 95.8 °C.
`Cc1c(S(=O)(=O)c2ccc(Cl)cc2)csc1C(=O)Cl` came in with a melting point of 131 to 132 °C.
Regarding `O=Cc1ccc(-c2ccccn2)cc1`, the melting point lay in the range of 51 to 53 °C.
`CCOC(=O)c1ccc(NC(=O)C(C(F)(F)F)C(F)(F)F)cc1` gave a melting point of 166 °C.
The compound `O=C(O)c1ccc(-c2ccc(O)cc2)cc1` displayed a melting point of 316 °C.
The result for `CSc1ncccc1C(=O)NC(CC(C)C)C(=O)O` (stereo unspecified) reads 143 to 146 °C; that for `Oc1ccc2ccccc2c1Cc1c(O)ccc2ccccc12`, 188 to 190 °C.
The result for `Nc1c(C=O)ccc2c1C(=O)c1ccccc1C2=O` reads 228 to 234 °C; that for `O=Cc1ccc2cccc(O)c2n1`, 96 to 100 °C; that for `C=C(C)C1CC=C(C)CC1` (stereo unspecified), -74.3 °C.
In the case of `COc1ccc2c(C(=O)c3ccc(Cl)cc3)c(C)n(CC(=O)O)c2c1`, the melting point stood at 242 °C.
On to `O=C(OC(=O)C(=Cc1ccccc1)Cc1ccccc1)C(=Cc1ccccc1)Cc1ccccc1`, for which the melting point lay in the range of 107 to 109 °C.
Consider `CCC=C1CCC2C3CCC4CC(OC(C)=O)CCC4(C)C3CCC12C` (stereo unspecified), for which the melting point was 114 °C.
With `C=C[Si](OCCOC)(OCCOC)OCCOC`, the melting point was -30 °C.
`N#CCc1csc2ccc(Cl)cc12` showed a melting point of 134 °C.
The result for `CSc1sc(C#N)c2c1C(=O)CC(C)(C)C2` reads 169 to 171 °C.
The result for `O=C(O)c1cc(-c2cccs2)[nH]n1` reads 229 to 232 °C; that for `Cc1cc(C(C)(C)c2ccc(O)c(C)c2)ccc1O`, 139 °C; that for `O=[N+]([O-])c1ccc(-c2nn3c(C(F)(F)F)nnc3s2)cc1`, 213 °C.
The compound `Cn1ccc2c(CO)cccc21` had a melting point of 69 to 71 °C.
Compound `Cn1nc(-c2ccccc2)cc1CCl` yielded a melting point of 70 to 72 °C.
Regarding `ClC1=C(Cl)C2(Cl)C(CBr)CC1(Cl)C2(Cl)Cl` (stereo unspecified), the melting point was determined as 77 °C.
The result for `Cc1cc(C)c(O)c(C(=O)CC2CC(=O)NC(=O)C2)c1` reads 201 °C; that for `O=C1CCC(c2ccc(N=Cc3ccccc3[N+](=O)[O-])cc2)=NN1`, 234 to 236 °C; that for `Oc1ncc(C(F)(F)F)cc1Cl`, 157 to 159 °C.
The result for `CCCCOc1cc(C(=O)O)ccc1OC` reads 142 to 144 °C.
The compound `COc1cc(CC(=O)O)cc(OC)c1OC` registered a melting point of 120 °C.
Consider `CC(=O)c1sc(-c2ccc(Cl)cc2)cc1N`, for which the melting point was 138 to 140 °C.
With `CC1(C)C2CCC1(C)C(/N=C(\C(=O)c1ccccc1)c1ccccc1)C2/N=C(\C(=O)c1ccccc1)c1ccccc1` (stereo unspecified), the melting point came out at 190 °C.
As to `CC12CC3CC(C1)CC(C)(C3)C2`, the melting point was -30 °C.
Compound `Nc1ccc2[nH]ccc2c1` gave a melting point of 132 °C.
The result for `Cc1nn(C)c(Cl)c1S(=O)(=O)O` reads 308 to 310 °C; that for `O=C(N=c1sc(C(=O)c2cccs2)nn1-c1ccccc1[N+](=O)[O-])c1ccccc1`, 239 °C.
On to `CC(C)(C)OC(=O)NC1CCNC1` (stereo unspecified), for which the melting point came to 67 °C.
The result for `O=C(CBr)c1coc2ccccc12` reads 136 to 137 °C.
The result for `CCOC(=O)C1=C(C)OC(N)=C(C#N)C1c1ccc2c(c1)CCO2` (stereo unspecified) reads 160 to 166 °C.
Compound `O=C(O)CCCOc1ccc(Cl)cc1Cl` registered a melting point of 118 °C.
In turn, `O=C(O)C1CC2CC1CCC2O` (stereo unspecified) yielded a melting point of 160 to 169 °C.
Turning to `Cc1onc(-c2ccccc2Cl)c1C(=O)Cl`, the melting point worked out at 42 °C.
The result for `Nc1cccc(-c2ccncc2)c1` reads 167 to 168 °C; that for `CNN=C(N)C(S)=NNC`, 185 °C.
`CCCCNC(=O)OCC(C)(CCC)COC(N)=O` (stereo unspecified) displayed a melting point of 50 °C.
`Cc1ccc(-c2snc(Cl)c2C#N)cc1` had a melting point of 82 to 83 °C.
With `CC(Oc1c(Cl)cccc1Cl)C1=NCCN1` (stereo unspecified), the melting point came out at 126 °C.
`Nc1ccc(CCC(=O)O)cc1` came in with a melting point of 134 °C.
`N#C/C(=C/c1ccco1)c1nc(-c2ccc(Br)cc2)cs1` came in with a melting point of 174 °C.
The result for `CNS(=O)(=O)O` reads 189 to 193 °C.
Compound `CCC(C)(c1ccc(O)cc1)c1ccc(O)cc1` yielded a melting point of 120 °C.
On to `CCCCOCCCN`, for which the melting point is -65 °C.
`O=C(NCNN(CNC(=O)c1ccccc1)CNC(=O)c1ccccc1)c1ccccc1` had a melting point of 123 to 125 °C.
As for `Nc1ncccc1Br`, the melting point amounted to 66 °C.
The compound `O=C1CCCCCC1c1ccccc1` (stereo unspecified) returned a melting point of 21 to 23 °C.
With `COc1ccc(-c2onc(C(=O)c3ccc([N+](=O)[O-])cc3)c2S(=O)(=O)c2ccccc2)cc1`, the melting point was 128 °C.
The compound `O=c1[nH]ccc(=S)[nH]1` had a melting point of 295 °C.
The result for `C=CC(=O)N1CCN(C(=O)C=C)CC1` reads 93 °C.
Compound `Cc1ccc2sc(CO)cc2c1` had a melting point of 93 to 94 °C.
`COc1ccc(C(=O)Cl)cc1` came in with a melting point of 24.5 °C.
Compound `CCOC(=O)C1=C(NC(=O)CCl)Oc2c(c(=O)oc3ccccc23)C1c1ccc(Br)cc1` (stereo unspecified) displayed a melting point of 158 °C.
As for `CC(C)OC(=O)C1(S(=O)(=O)c2ccc([N+](=O)[O-])cc2)CCCCC1`, the melting point came out at 110 °C.
The result for `OCc1ccccc1Cc1ccccc1` reads 37 to 41 °C; that for `CC(=O)CS(=O)(=O)c1ccc(Cl)cc1`, 89 to 91 °C.
With `c1ccc(Nc2nc(N3CCOCC3)nc(N3CCOCC3)n2)cc1`, the melting point was found to be 173 °C.
For `CCCCCCCCCCCCCCC(C)CC` (stereo unspecified), the melting point is -6 °C.
With `O=[N+]([O-])c1ccc(N=Nc2ccccc2)cc1`, the melting point is 133 °C.
For the compound `COC(=O)c1cnc(Cl)nc1`, the melting point lay in the range of 76 to 80 °C.
The result for `O=C1c2ccccc2C(=O)N1Cl` reads 185 to 189 °C; that for `COc1c(C(=O)Cl)csc1Cl`, 66 to 68 °C; that for `CC(C)(C)N(NC(=O)c1ccccc1)C(=O)c1cccc(Cl)c1`, 180 °C.
Consider `CCCCCCCCCCCCCCCCCC(=O)OC(=O)CCCCCCCCCCCCCCCCC`, for which the melting point amounted to 72 °C.
`CCC1(C2=CCCCCC2)C(=O)NC(=O)NC1=O` displayed a melting point of 174 °C.
Regarding `CNCc1ccc(-c2cccs2)nc1`, the melting point fell in the range of 65.5 to 66.5 °C.
With `CCCCCCCCCN`, the melting point was -1 °C.
The result for `O=c1[nH]c(=O)n(C2CC(O)C(CO)O2)cc1C(F)(F)F` (stereo unspecified) reads 188 °C.
`O=C1NC(=S)NC(=O)C1=NNc1ccc(C(=O)O)cc1` returned a melting point of 340 °C.
In the case of `CC(=O)Nc1ccc2c(c1)CCC2`, the melting point fell in the range of 106 to 108 °C.
Regarding `OC1CCCCCC1`, the melting point came to 2 °C.
Compound `CCCN(C(C)=O)c1ccccc1` had a melting point of 49 °C.
As for `CN1C(=O)c2ccc([N+](=O)[O-])cc2C1=O`, the melting point lay in the range of 178 to 179 °C.
On to `Oc1c(Br)ccc2cccnc12`, for which the melting point is 140 °C.
For `COC(=O)c1ccc(NC(C)C)c(N)c1`, the melting point lay within 104 to 106 °C.
The result for `CC[C@H](N)P(=O)(O)O` reads 260 °C; that for `Oc1ccc(C2CCCCC2)cc1Cl`, 40.5 °C; that for `CC(Cl)C(=O)Cl` (stereo unspecified), -71 °C.
`Oc1cccc(O)c1Cc1c(O)cccc1O` registered a melting point of 255 °C.
In the case of `CC1CCC2C1C1C(CCC2(C)O)C1(C)C` (stereo unspecified), the melting point was 105 °C.
In turn, `CCC1OC(=O)C(C)C(OC2CC(C)(OC)C(O)C(C)O2)C(C)C(OC2OC(C)CC(N(C)C)C2O)C(C)(O)CC(C)C(=O)C(C)C(O)C1(C)O` (stereo unspecified) had a melting point of 135 °C.
As for `ON=C(Cl)c1ccc(Cl)cc1Cl`, the melting point lay in the range of 93 to 95 °C.
On to `CCCCCCCCC=CCCCCCCCC(=O)OCC`, for which the melting point was -32 °C.
Turning to `Oc1ccccc1N=CC=Nc1ccccc1O`, the melting point lay within 201 to 205 °C.
For `CS(=O)(=O)c1csc(C(=O)Cl)c1Cl`, the melting point lay in the range of 181 to 185 °C.
Compound `CC(S)C(=O)NCC(=O)O` (stereo unspecified) yielded a melting point of 96 °C.
On to `N#CC(C#N)=C1C(=O)NN(c2ccccc2)C1=O`, for which the melting point is 289 °C.
Compound `COC(=O)c1ccc(Br)c(C)c1` came in with a melting point of 42 °C.
Take `Cc1ccc2c(c1C)CCC1C2CCC2CC(O)CCC21C` (stereo unspecified): the melting point came out at 188 °C.
The result for `CC(C)(C)OC(=O)NC(Cc1ccc(Br)s1)C(=O)O` (stereo unspecified) reads 70.3 °C; that for `Cc1cc(Cl)ncc1N`, 69 to 73 °C; that for `O=C(Cl)c1cccnc1Sc1ccccc1`, 71 to 74 °C.
The result for `Cc1cc(C=O)c(O)c(C=O)c1` reads 127 to 131 °C; that for `Oc1ccc2cccc(Cl)c2c1`, 101 °C.
The result for `Oc1ncnc2[nH]cnc12` reads 250 °C.
The compound `CC(c1ncncc1F)C(O)(Cn1cncn1)c1ccc(F)cc1F` (stereo unspecified) had a melting point of 128 °C.
The compound `Cc1nc(-c2ccncc2)sc1C(=O)O` showed a melting point of 305 °C.
The compound `NC(=O)n1c(C2CCCCC2)nn(-c2ccccc2)c1=O` returned a melting point of 198 °C.
Turning to `CCOC(=O)Nc1nc(N)c(C(N)=O)s1`, the melting point is 168 to 170 °C.
